Source: the CheMixHub ionic liquid set

Experiment: xn = mol fraction of the nth substance listed

CCCCCCCCn1cc[n+](C)c1.[Cl-] + CCO
viscosity [mPa·s], 101 kPa
Details | x2 = 0.0449 | x2 = 0.1305 | x2 = 0.6858 | x2 = 0.8809 | x2 = 0.9794
298.15 K | 12600 | 5400 | – | – | –
313.15 K | – | – | 14.6 | – | 1.061
328.15 K | 830 | – | 9.12 | 1.997 | 0.819

CCCCCCCCCCCCCCCC[n+]1ccccc1.[Cl-] + NCC(=O)NCC(=O)O + O
electrical conductivity [S/m], 100 kPa
Details | x1 = 8.993e-05, x2 = 0.001802 | x1 = 8.996e-05, x2 = 0.001442 | x1 = 8.999e-05, x2 = 0.001082 | x1 = 9.003e-05, x2 = 0.0007214 | x1 = 9.006e-05, x2 = 0.0003609 | x1 = 9.009e-05, x2 = 0
298.15 K | 0.024 | 0.023 | 0.022 | 0.021 | 0.02 | 0.02
303.15 K | 0.025 | 0.024 | 0.023 | 0.022 | 0.021 | 0.021
308.15 K | 0.027 | 0.026 | 0.024 | 0.023 | 0.022 | 0.021
313.15 K | 0.028 | 0.027 | 0.025 | 0.024 | 0.023 | 0.023

CC(=O)[O-].COCCn1cc[n+](C)c1 + O
100 kPa
Details | electrical conductivity [S/m] | viscosity [mPa·s]
293.15 K, x1 = 0.8395 | 0.408 | 54.79
293.15 K, x1 = 0.8942 | 0.338 | 58.87
303.15 K, x1 = 0.8942 | 0.495 | 32.66
308.15 K, x1 = 0.8659 | 0.636 | 25.93
318.15 K, x1 = 0.8659 | 0.925 | 17.73

CCCCCCCCCCCC[N+](C)(C)C.[Br-] + [Cl-].[Na+] + O
298.15 K, 101 kPa
Details | electrical conductivity [S/m]
x1 = 2.89e-06, x2 = 0.001799 | 0.8786
x1 = 4.51e-06, x2 = 0.0001802 | 0.1179
x1 = 7.42e-06, x2 = 0.001799 | 0.8778
x1 = 9.37e-06, x2 = 0.0001802 | 0.1201
x1 = 1.357e-05, x2 = 0.001799 | 0.878
x1 = 1.406e-05, x2 = 0.0001802 | 0.1223
x1 = 2.037e-05, x2 = 0.0001802 | 0.1252
x1 = 2.28e-05, x2 = 0.001799 | 0.8786
x1 = 2.92e-05, x2 = 0.0001802 | 0.1294
x1 = 3.184e-05, x2 = 0.001799 | 0.8802
x1 = 4.038e-05, x2 = 0.0001802 | 0.1348
x1 = 4.071e-05, x2 = 0.001799 | 0.8816
x1 = 4.957e-05, x2 = 0.001799 | 0.8831
x1 = 5.047e-05, x2 = 0.0001802 | 0.1397
x1 = 5.536e-05, x2 = 0.001799 | 0.8846
x1 = 6.115e-05, x2 = 0.001799 | 0.8858
x1 = 6.183e-05, x2 = 0.0001802 | 0.1451
x1 = 6.694e-05, x2 = 0.001799 | 0.8876
x1 = 7.273e-05, x2 = 0.001799 | 0.8895
x1 = 7.319e-05, x2 = 0.0001801 | 0.1504
x1 = 7.87e-05, x2 = 0.001799 | 0.8913
x1 = 8.4e-05, x2 = 0.0001801 | 0.1556
x1 = 8.467e-05, x2 = 0.001799 | 0.893
x1 = 9.064e-05, x2 = 0.001799 | 0.8946
x1 = 9.481e-05, x2 = 0.0001801 | 0.1607
x1 = 9.642e-05, x2 = 0.001799 | 0.8963
x1 = 0.000102, x2 = 0.001799 | 0.8978
x1 = 0.0001071, x2 = 0.0001801 | 0.1667
x1 = 0.0001078, x2 = 0.001799 | 0.8993
x1 = 0.0001134, x2 = 0.001799 | 0.9008
x1 = 0.0001199, x2 = 0.0001801 | 0.1727
x1 = 0.0001219, x2 = 0.001799 | 0.9032
x1 = 0.0001275, x2 = 0.001799 | 0.9048
x1 = 0.0001309, x2 = 0.0001801 | 0.1778
x1 = 0.0001331, x2 = 0.001799 | 0.9066
x1 = 0.0001415, x2 = 0.001798 | 0.9086
x1 = 0.0001435, x2 = 0.0001801 | 0.1838
x1 = 0.0001498, x2 = 0.001798 | 0.9101
x1 = 0.0001548, x2 = 0.0001801 | 0.1892
x1 = 0.0001554, x2 = 0.001798 | 0.9111
x1 = 0.000161, x2 = 0.001798 | 0.9122
x1 = 0.0001673, x2 = 0.0001801 | 0.1949
x1 = 0.0001693, x2 = 0.001798 | 0.9132
x1 = 0.0001776, x2 = 0.001798 | 0.9143
x1 = 0.0001793, x2 = 0.0001801 | 0.2005
x1 = 0.0001856, x2 = 0.001798 | 0.9156
x1 = 0.0001914, x2 = 0.0001801 | 0.2061
x1 = 0.0001935, x2 = 0.001798 | 0.9166
x1 = 0.0002017, x2 = 0.001798 | 0.9175
x1 = 0.0002022, x2 = 0.0001801 | 0.2111
x1 = 0.0002098, x2 = 0.001798 | 0.9186
x1 = 0.0002138, x2 = 0.0001801 | 0.2164
x1 = 0.000218, x2 = 0.001798 | 0.9197
x1 = 0.0002251, x2 = 0.0001801 | 0.2214
x1 = 0.0002259, x2 = 0.001798 | 0.9207
x1 = 0.0002339, x2 = 0.001798 | 0.9217
x1 = 0.0002365, x2 = 0.0001801 | 0.2263
x1 = 0.000246, x2 = 0.0001801 | 0.2301
x1 = 0.000257, x2 = 0.0001801 | 0.2333
x1 = 0.0002685, x2 = 0.0001801 | 0.2357
x1 = 0.0002797, x2 = 0.0001801 | 0.2376
x1 = 0.0002912, x2 = 0.0001801 | 0.2394
x1 = 0.0003044, x2 = 0.0001801 | 0.2413
x1 = 0.000319, x2 = 0.0001801 | 0.2432
x1 = 0.0003359, x2 = 0.0001801 | 0.2454
x1 = 0.0003538, x2 = 0.0001801 | 0.2477
x1 = 0.0003736, x2 = 0.0001801 | 0.2502
x1 = 0.0003955, x2 = 0.0001801 | 0.2528
x1 = 0.0004254, x2 = 0.0001801 | 0.2566
